Experiment [1] concerns T-cell. The experiment in a line: Inhibition of T-cell proliferation. Type of experiment: functional. Particulars: read-out: ED50 (the source's name).
The target of experiment [2] is Peptidyl-prolyl cis-trans isomerase A (Homo sapiens, UniProt P62937). The experiment in a line: Inhibition of cyclophilin A rotamase.

We go through four molecules from ChEMBL document CHEMBL1137192, “Synthesis and neurotrophic activity of nonimmunosuppressant cyclosporin A derivatives” (Bioorg Med Chem Lett, 2004).

The structures appear in SMILES notation.

Chain of Peptidyl-prolyl cis-trans isomerase A (P62937 whole entry): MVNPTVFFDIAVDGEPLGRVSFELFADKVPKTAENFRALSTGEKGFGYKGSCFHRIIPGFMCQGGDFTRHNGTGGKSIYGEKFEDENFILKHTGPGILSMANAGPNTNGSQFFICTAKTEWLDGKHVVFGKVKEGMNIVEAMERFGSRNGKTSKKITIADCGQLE

Take `C=C1NC(=O)[C@H](C)NC(=O)[C@H](CC(C)C)N(C)C(=O)[C@H](C(C)C)NC(=O)[C@H](CC(C)C)N(C)C(=O)CN(C)C(=O)[C@H](CC)NC(=O)[C@H]([C@H](O)[C@H](C)C/C=C/C)N(C)C(=O)[C@H](C(C)C)N(C)C(=O)[C@H](CC(C)C)N(C)C(=O)[C@H](CC(C)C)N(C)C1=O`: the EC50 in experiment [1] was over 10 µM. For the molecule `CCCC[C@@H](C)[C@@H](O)[C@H]1C(=O)N[C@@H](CC)C(=O)N(C)CC(=O)N(C)[C@@H](CC(C)C)C(=O)N[C@@H](C(C)C)C(=O)N(C)[C@@H](CC(C)C)C(=O)N[C@@H](C)C(=O)N[C@H](C)C(=O)N(C)[C@@H](CC(C)C)C(=O)N(C)[C@@H](CC(C)C)C(=O)N(C)[C@@H](C(C)C)C(=O)N1C`, the EC50 in experiment [1] came to 0.13 µM. Broadly, the Ki is the equilibrium dissociation constant of an inhibitor or competing ligand from its target. Take `C/C=C/C[C@@H](C)C(O)[C@H]1C(=O)N[C@@H](CC)C(=O)N(C)CC(=O)N(C)[C@H](CC(C)C)C(=O)N[C@](C)(C(C)O)C(=O)N(C)[C@@H](CC(C)C)C(=O)N[C@@H](C)C(=O)N[C@H](C)C(=O)N(C)[C@H](CC(C)C)C(=O)N(C)[C@@H](CC(C)C)C(=O)N(C)[C@@H](C(C)C)C(=O)N1C` (stereo not given in full): the EC50 in experiment [1] was over 10 µM. Also, in experiment [2], the affinity corresponds to a Ki of 0.018 µM.

In the case of `C/C=C/C[C@@H](C)[C@@H](O)[C@H]1C(=O)N[C@@H](CC)C(=O)N(C)CC(=O)N(C)[C@@H](CC)C(=O)N[C@@H](C(C)C)C(=O)N(C)[C@@H](CC(C)C)C(=O)N[C@@H](C)C(=O)N[C@H](C)C(=O)N(C)[C@@H](CC(C)C)C(=O)N(C)[C@@H](CC(C)C)C(=O)N(C)[C@@H](C(C)C)C(=O)N1C`, the EC50 in experiment [1] was over 10 µM.
